Reference: patent US20260184710A1, “CASITAS B-LINEAGE LYMPHOMA PROTOONCOGENE B (CBL-B) DEGRADING COMPOUNDS AND ASSOCIATED METHODS OF USE” (Arvinas Operations, Inc., priority 2022, published 2026)
Each block holds one molecule with its values, some of them ahead of it.

Target: T1, Cbl-b (Homo sapiens, UniProt Q13191)
T1 construct: Cbl-b-HiBit KI Jurkat Cells were purchased from Promega; host or cells: Cbl-b-HiBiT knock-in Jurkat cells
Assay: Cbl-b Degradation Method B (Nano-Glo HiBiT lytic detection)
Format: cell-based
Conditions: Cbl-b-HiBit KI Jurkat Cells, incubated at least 6-24 hours; for DC50: half maximal degradation, read-out: Cbl-b Degredation Method B IC50; for Dmax: maximum degradation observed, read-out: Cbl-b Degredation Method B Dmax (%)
In short: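 An 11-point, 3-fold compound dilution was applied for 6-24 hours to Jurkat cells carrying HiBiT-tagged endogenous Cbl-b. Lytic HiBiT luminescence quantified residual protein. Outputs are DC50 and Dmax relative to DMSO control.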

T1 sequence (Q13191 whole entry): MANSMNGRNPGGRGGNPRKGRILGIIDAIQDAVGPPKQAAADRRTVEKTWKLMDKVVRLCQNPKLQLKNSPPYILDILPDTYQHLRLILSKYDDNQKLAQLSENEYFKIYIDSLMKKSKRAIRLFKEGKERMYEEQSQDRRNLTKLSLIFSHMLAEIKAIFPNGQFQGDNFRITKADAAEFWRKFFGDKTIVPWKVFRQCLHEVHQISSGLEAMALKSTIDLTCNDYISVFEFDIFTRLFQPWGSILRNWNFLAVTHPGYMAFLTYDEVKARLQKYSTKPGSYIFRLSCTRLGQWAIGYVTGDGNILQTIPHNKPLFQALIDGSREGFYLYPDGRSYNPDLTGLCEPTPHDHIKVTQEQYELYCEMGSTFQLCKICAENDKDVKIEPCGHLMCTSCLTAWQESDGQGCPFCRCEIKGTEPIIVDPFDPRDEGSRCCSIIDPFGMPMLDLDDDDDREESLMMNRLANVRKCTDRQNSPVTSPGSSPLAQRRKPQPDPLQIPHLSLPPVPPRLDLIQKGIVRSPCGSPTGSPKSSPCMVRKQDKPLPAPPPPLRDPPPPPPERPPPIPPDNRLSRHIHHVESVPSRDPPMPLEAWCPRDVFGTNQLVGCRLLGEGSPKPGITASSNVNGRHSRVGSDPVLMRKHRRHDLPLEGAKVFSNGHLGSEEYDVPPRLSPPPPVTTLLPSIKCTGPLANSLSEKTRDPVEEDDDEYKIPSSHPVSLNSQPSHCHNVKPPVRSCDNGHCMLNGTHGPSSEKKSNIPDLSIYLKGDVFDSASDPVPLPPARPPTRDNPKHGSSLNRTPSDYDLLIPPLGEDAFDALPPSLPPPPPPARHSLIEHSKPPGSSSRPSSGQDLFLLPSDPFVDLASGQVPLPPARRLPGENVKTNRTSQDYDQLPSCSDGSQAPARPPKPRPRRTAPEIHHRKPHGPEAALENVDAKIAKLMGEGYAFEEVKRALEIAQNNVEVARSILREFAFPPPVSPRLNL

SMILES: C[C@@H]1C[C@H](CN2CCC(CN3CCC(CN4CCN(c5ccc6c(c5)C(=O)N(C5CCC(=O)NC5=O)C6=O)CC4)CC3)CC2)CN(c2cc3c(c(C(F)(F)F)c2)CN(c2cccc(C4(Cc5nncn5C)COC4)c2)C3=O)C1 (stereo partly drawn) [Example 73, 2-(2,6-dioxopiperidin-3-yl)-5-[4-({1-[(1-{[(3R,5R)-5-methyl-1-[2-(3-{3-[(4-methyl-4H-1,2,4-triazol-3-yl)methyl]oxetan-3-yl}phenyl)-3-oxo-7-(trifluoromethyl)-2,3-dihydro-1H-isoindol-5-yl]piperidin-3-yl]methyl}piperidin-4-yl)methyl]piperidin-4-yl}methyl)piperazin-1-yl]-2,3-dihydro-1H-isoindole-1,3-dione]
DC50: 5 to 50 nM
Dmax: 35 to 70%

SMILES: Cn1cnnc1CC1(c2cccc(N3Cc4c(cc(CN5CCC(CN6CCN(c7ccc8c(c7)C(=O)N(C7CCC(=O)NC7=O)C8=O)CC6)C5)cc4C(F)(F)F)C3=O)c2)COC1 (centres unmarked) [Example 80, 2-(2,6-dioxopiperidin-3-yl)-5-{4-[(1-{[2-(3-{3-[(4-methyl-4H-1,2,4-triazol-3-yl)methyl]oxetan-3-yl}phenyl)-3-oxo-7-(trifluoromethyl)-2,3-dihydro-1H-isoindol-5-yl]methyl}pyrrolidin-3-yl)methyl]piperazin-1-yl}-2,3-dihydro-1H-isoindole-1,3-dione]
DC50: > 500 nM

SMILES: Cn1cnnc1CC1(c2cccc(N3Cc4c(cc(CN5CCC[C@H](CN6CCN(C(=O)[C@H]7CC[C@@H](OC8CCN(c9ccc%10c(c9F)CN(C9CCC(=O)NC9=O)C%10=O)CC8)CC7)CC6)C5)cc4C(F)(F)F)C3=O)c2)COC1 (stereo partly drawn) [Example 113, 3-[4-fluoro-1-oxo-5-(4-{[(1r,4r)-4-(4-{[(3S)-1-{[2-(3-{3-[(4-methyl-4H-1,2,4-triazol-3-yl)methyl]oxetan-3-yl}phenyl)-3-oxo-7-(trifluoromethyl)-2,3-dihydro-1H-isoindol-5-yl]methyl}piperidin-3-yl]methyl}piperazine-1-carbonyl)cyclohexyl]oxy}piperidin-1-yl)-2,3-dihydro-1H-isoindol-2-yl]piperidine-2,6-dione]
DC50: < 5 nM
Dmax: 35 to 70%

SMILES: Cn1cnnc1C[C@]1(c2cccc(N3Cc4c(cc(N5CC6(CCN(C(=O)C7CCN(c8ccc9c(c8)C(=O)N(C8CCC(=O)NC8=O)C9=O)CC7)CC6)C5)cc4C(F)(F)F)C3=O)c2)C[C@H](C#N)C1 (some centres unmarked) [Example 146, 3-[3-[6-[7-[1-[2-(2,6-dioxo-3-piperidyl)-1,3-dioxo-isoindolin-5-yl]piperidine-4-carbonyl]-2,7-diazaspiro[3.5]nonan-2-yl]-1-oxo-4-(trifluoromethyl)isoindolin-2-yl]phenyl]-3-[(4-methyl-1,2,4-triazol-3-yl)methyl]cyclobutanecarbonitrile]
DC50: 5 to 50 nM
Dmax: < 35%

SMILES: COc1c(N2CCC(OC3CCC4(CC3)CN(c3cc5c(c(C(F)(F)F)c3)CN(c3cccc(C6(Cc7nncn7C)COC6)c3)C5=O)C4)CC2)ccc2c1CN(C1CCC(=O)NC1=O)C2=O (centres unmarked) [Example 149, 3-[4-methoxy-5-[4-[[2-[2-[3-[3-[(4-methyl-1,2,4-triazol-3-yl)methyl]oxetan-3-yl]phenyl]-3-oxo-7-(trifluoromethyl)isoindolin-5-yl]-2-azaspiro[3.5]nonan-7-yl]oxy]-1-piperidyl]-1-oxo-isoindolin-2-yl]piperidine-2,6-dione]
DC50: 5 to 50 nM
Dmax: 35 to 70%

SMILES: Cc1cc(N2C[C@H]3C[C@@H]2CN3CC2CCC3(CC2)CN(c2cc4c(c(C(F)(F)F)c2)CN(c2cccc([C@]5(Cc6nncn6C)C[C@@H](C#N)C5)c2)C4=O)C3)c(F)c2c1C(=O)N(C1CCC(=O)NC1=O)C2 (stereo partly drawn) [Example 150, 3-[3-[6-[7-[[(1R,4R)-5-[2-(2,6-dioxo-3-piperidyl)-4-fluoro-7-methyl-1-oxo-isoindolin-5-yl]-2,5-diazabicyclo [2.2.1]heptan-2-yl]methyl]-2-azaspiro [3.5]nonan-2-yl]-1-oxo-4-(trifluoromethyl)isoindolin-2-yl]phenyl]-3-[(4-methyl-1,2,4-triazol-3-yl)methyl]cyclobutanecarbonitrile]
DC50: > 500 nM

SMILES: CC1c2nc(N3CCC(O[C@H]4CC[C@H](CN5CCN(Cc6cc7c(c(C(F)(F)F)c6)CN(c6cccc([C@]8(Cc9nncn9C)C[C@@H](C#N)C8)c6)C7=O)C(C)(C)C5)CC4)CC3)ccc2C(=O)N1C1CCC(=O)NC1=O (some centres unmarked) [Example 152, 3-[3-[6-[[4-[[4-[[1-[6-(2,6-dioxo-3-piperidyl)-7-methyl-5-oxo-7H-pyrrolo[3,4-b]pyridin-2-yl]-4-piperidyl]oxy]cyclohexyl]methyl]-2,2-dimethyl-piperazin-1-yl]methyl]-1-oxo-4-(trifluoromethyl)isoindolin-2-yl]phenyl]-3-[(4-methyl-1,2,4-triazol-3-yl)methyl]cyclobutanecarbonitrile]
DC50: < 5 nM
Dmax: 35 to 70%

SMILES: Cc1cc(N2CCC(CN3CCC4(CC3)CN(c3cc(C(F)(F)F)c5cn(-c6cccc([C@]7(Cc8nncn8C)C[C@@H](C#N)C7)c6)nc5c3)C4)CC2)c(F)c2c1C(=O)N(C1CCC(=O)NC1=O)C2 (some centres unmarked) [Example 154, 3-[3-[6-[7-[[1-[2-(2,6-dioxo-3-piperidyl)-4-fluoro-7-methyl-1-oxo-isoindolin-5-yl]-4-piperidyl]methyl]-2,7-diazaspiro[3.5]nonan-2-yl]-4-(trifluoromethyl)indazol-2-yl]phenyl]-3-[(4-methyl-1,2,4-triazol-3-yl)methyl]cyclobutanecarbonitrile]
DC50: > 500 nM

SMILES: Cn1cnnc1CC1(c2cccc(-n3cc4c(C(F)(F)F)cc(CN5CCC[C@H](CN6CCC[C@H](CN7CCN(c8ccc9c(c8F)CN(C8CCC(=O)NC8=O)C9=O)CC7)C6)C5)cc4n3)c2)COC1 (stereo partly drawn) [Example 155, 3-[4-fluoro-5-[4-[[(3S)-1-[[(3R)-1-[[2-[3-[3-[(4-methyl-1,2,4-triazol-3-yl)methyl]oxetan-3-yl]phenyl]-4-(trifluoromethyl)indazol-6-yl]methyl]-3-piperidyl]methyl]-3-piperidyl]methyl]piperazin-1-yl]-1-oxo-isoindolin-2-yl]piperidine-2,6-dione]
DC50: > 500 nM

SMILES: Cn1cnnc1CC(C)(C)c1cccc(N2Cc3c(cc(CN4CCC[C@H](CN5CCN(C[C@H]6CC[C@@H](OC7CCN(c8ccc9c(c8F)CN(C8CCC(=O)NC8=O)C9=O)CC7)CC6)CC5)C4)cc3C(F)(F)F)C2=O)c1 (stereo partly drawn) [Example 164, 3-[4-fluoro-1-oxo-5-(4-{[(1r,4r)-4-[(4-{[(3S)-1-[(2-{3-[2-methyl-1-(4-methyl-4H-1,2,4-triazol-3-yl)propan-2-yl]phenyl}-3-oxo-7-(trifluoromethyl)-2,3-dihydro-1H-isoindol-5-yl)methyl]piperidin-3-yl]methyl}piperazin-1-yl)methyl]cyclohexyl]oxy}piperidin-1-yl)-2,3-dihydro-1H-isoindol-2-yl]piperidine-2,6-dione]
DC50: < 5 nM
Dmax: > 70%

Second part, the molecule after the results:

DC50: > 500 nM
SMILES: Cn1cnnc1CC1(c2cccc(N3Cc4c(cc(CN5CCC(CC6CCN(c7ccc8c(c7)C(=O)N(C7CCC(=O)NC7=O)C8=O)CC6)CC5)cc4C(F)(F)F)C3=O)c2)COC1 (centres unmarked) [Example 78, 2-(2,6-dioxopiperidin-3-yl)-5-{4-[(1-{[2-(3-{3-[(4-methyl-4H-1,2,4-triazol-3-yl)methyl]oxetan-3-yl}phenyl)-3-oxo-7-(trifluoromethyl)-2,3-dihydro-1H-isoindol-5-yl]methyl}piperidin-4-yl)methyl]piperidin-1-yl}-2,3-dihydro-1H-isoindole-1,3-dione]

DC50: > 500 nM
SMILES: Cn1cnnc1CC1(c2cccc(-n3cc4ccc(CN5CCC[C@H](CN6CCN(C[C@H]7CC[C@H](OC8CCN(c9ccc%10c(c9F)CN(C9CCC(=O)NC9=O)C%10=O)CC8)CC7)CC6)C5)cc4n3)c2)COC1 (stereo partly drawn) [Example 147, 3-[4-fluoro-5-[4-[4-[[4-[[(3S)-1-[[2-[3-[3-[(4-methyl-1,2,4-triazol-3-yl)methyl]oxetan-3-yl]phenyl]indazol-6-yl]methyl]-3-piperidyl]methyl]piperazin-1-yl]methyl]cyclohexoxy]-1-piperidyl]-1-oxo-isoindolin-2-yl]piperidine-2,6-dione]

DC50: 5 to 50 nM
Dmax: 35 to 70%
SMILES: CC1c2nc(N3CCC(O[C@H]4CC[C@H](CN5CCN(Cc6ccc7c(n6)C(=O)N(c6cccc(C8(Cc9nncn9C)COC8)c6)C7)CC5)CC4)CC3)ccc2C(=O)N1C1CCC(=O)NC1=O (some centres unmarked) [Example 151, 3-[7-methyl-2-[4-[4-[[4-[[6-[3-[3-[(4-methyl-1,2,4-triazol-3-yl)methyl]oxetan-3-yl]phenyl]-7-oxo-5H-pyrrolo [3,4-b]pyridin-2-yl]methyl]piperazin-1-yl]methyl]cyclohexoxy]-1-piperidyl]-5-oxo-7H-pyrrolo [3,4-b]pyridin-6-yl]piperidine-2,6-dione]

DC50: > 500 nM
SMILES: Cn1cnnc1CC1(c2cccc(N3Cc4c(cc(CN5CCCC(OC6CCN(c7ccc8c(c7F)CN(C7CCC(=O)NC7=O)C8=O)CC6)C5)cc4C(F)(F)F)C3=O)c2)COC1 (centres unmarked) [Example 156, 3-(4-fluoro-5-{4-[(1-{[2-(3-{3-[(4-methyl-4H-1,2,4-triazol-3-yl)methyl]oxetan-3-yl}phenyl)-3-oxo-7-(trifluoromethyl)-2,3-dihydro-1H-isoindol-5-yl]methyl}piperidin-3-yl)oxy]piperidin-1-yl}-1-oxo-2,3-dihydro-1H-isoindol-2-yl)piperidine-2,6-dione]

DC50: < 5 nM
Dmax: 35 to 70%
SMILES: Cn1cnnc1C[C@]1(c2cccc(N3Cc4c(cc(CN5CCC[C@H](CN6CCN(C[C@H]7CC[C@H](OC8CCN(c9ccc%10c(c9F)CN(C9CCC(=O)NC9=O)C%10=O)CC8)CC7)CC6)C5)cc4C(F)(F)F)C3=O)c2)C[C@@H](C#N)C1 (stereo partly drawn) [Example 168, (1r,3r)-3-[(4-methyl-4H-1,2,4-triazol-3-yl)methyl]-3-[3-(1-oxo-6-{[(3S)-3-[(4-{[(1r,4r)-4-({1-[2-(2,6-dioxopiperidin-3-yl)-4-fluoro-1-oxo-2,3-dihydro-1H-isoindol-5-yl]piperidin-4-yl}oxy)cyclohexyl]methyl}piperazin-1-yl)methyl]piperidin-1-yl]methyl}-4-(trifluoromethyl)-2,3-dihydro-1H-isoindol-2-yl)phenyl]cyclobutane-1-carbonitrile]
